Results as given in patent publication US7476671B2, “2-amino-imidazo[4,5-d]pyridazin-4-ones, their preparation and their use as pharmaceutical compositions” (Boehringer Ingelheim International GmbH, priority 2004, dated 2009).

Molecular target: T1, DPP-IV (Homo sapiens, UniProt P27487)
T1 construct: an extract of the human colon carcinoma cell line Caco-2 is used as the DPP IV source; endogenous in cells; host or cells: Caco-2 (human colon carcinoma), differentiated to induce DPP-IV expression; Nonidet-P40 solubilised extract
Assay: DPP-IV assay with extract of the human colon carcinoma cell line Caco-2 as DPP IV source, AFC substrate, fluorescence
Type: biochemical
Details: solubilised Caco-2 protein, substrate 100 μM, 60 minutes at ambient temperature, 11-point curves; read-out: DPP IV inhibition IC50
Protocol: The differentiation of the cells in order to induce the DPP-IV expression was carried out in accordance with the description by Reiher et al. in an article entitled “Increased expression of intestinal cell line Caco-2”, which appeared in Proc. Natl. Acad. Sci. Vol. 90, pp. 5757-5761 (1993).
The cell extract was obtained from cells solubilised in a buffer (10 mM Tris HCl, 0.15 M NaCl, 0.04 t.i.u. aprotinin, 0.5% Nonidet-P40, pH 8.0) by centrifugation at 35,000 g for 30 minutes at 4° C. (to remove cell debris).
The DPP-IV assay was carried out as follows:
50 μl of substrate solution (AFC; AFC is amido-4-trifluoromethylcoumarin), final concentration 100 μM, were placed in black microtitre plates. 20 μl of assay buffer (final concentrations 50 mM Tris HCl, pH 7.8, 50 mM NaCl, 1% DMSO) was pipetted in. The reaction was started by the addition of 30 μl of solubilised Caco-2 protein (final concentration 0.14 μg of protein per well). The test substances under investigation were typically added prediluted to 20 μl, while the volume of assay buffer was then reduced accordingly. The reaction was carried out at ambient temperature, the incubation period was 60 minutes. Then the fluorescence was measured in a Victor 1420 Multilabel Counter, with the excitation wavelength at 405 nm and the emission wavelength at 535 nm. Dummy values (corresponding to 0% activity) were obtained in mixtures with no Caco-2 protein (volume replaced by assay buffer), control values (corresponding to 100% activity) were obtained in mixtures without any added substance. The potencies of the test substances in question, expressed as IC50 values, were calculated from dosage/activity curves consisting of 11 measured points in each case.

T1 sequence (P27487 whole entry): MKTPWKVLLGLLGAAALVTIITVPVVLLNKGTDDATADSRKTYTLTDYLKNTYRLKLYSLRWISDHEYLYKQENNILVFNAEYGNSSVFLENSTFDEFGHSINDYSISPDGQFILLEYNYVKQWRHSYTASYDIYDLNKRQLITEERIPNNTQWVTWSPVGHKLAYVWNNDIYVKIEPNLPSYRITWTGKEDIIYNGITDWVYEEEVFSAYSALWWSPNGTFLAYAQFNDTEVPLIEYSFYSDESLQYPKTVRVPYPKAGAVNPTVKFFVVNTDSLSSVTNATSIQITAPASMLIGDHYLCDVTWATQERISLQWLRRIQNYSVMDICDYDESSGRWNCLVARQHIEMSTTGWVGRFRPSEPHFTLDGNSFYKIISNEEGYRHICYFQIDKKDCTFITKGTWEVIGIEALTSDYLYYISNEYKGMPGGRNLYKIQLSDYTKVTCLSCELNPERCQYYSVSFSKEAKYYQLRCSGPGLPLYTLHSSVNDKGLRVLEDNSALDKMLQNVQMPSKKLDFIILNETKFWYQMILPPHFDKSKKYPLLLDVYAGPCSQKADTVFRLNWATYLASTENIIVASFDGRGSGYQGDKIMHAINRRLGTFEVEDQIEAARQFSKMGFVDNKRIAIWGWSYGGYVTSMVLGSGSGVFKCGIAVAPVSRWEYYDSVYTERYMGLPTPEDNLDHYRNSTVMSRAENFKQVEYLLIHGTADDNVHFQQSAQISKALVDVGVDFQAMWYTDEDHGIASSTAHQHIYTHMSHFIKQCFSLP

SMILES | IC50
CC#CCn1c(N(C)CCN)nc2cnn(Cc3nc(C)cc4ccccc34)c(=O)c21 [1(1), 2-[N-(2-aminoethyl)-N-methyl-amino]-3-(2-butyn-1-yl)-5-[(3-methyl-isoquinolin-1-yl)methyl]-3,5-dihydro-imidazo[4,5-d]pyridazin-4-one] | 0.01 µM
CC#CCn1c(N(C)CCN)nc2ccn(Cc3nc(C)cc4ccccc34)c(=O)c21 [1(2), 2-[N-(2-aminoethyl)-N-methyl-amino]-3-(2-butyn-1-yl)-5-[(3-methyl-isoquinolin-1-yl)methyl]-3,5-dihydro-imidazo[4,5-c]pyridin-4-one] | 0.034 µM
CC#CCn1c(N(C)CC(C)(C)N)nc2cnn(Cc3ccccc3C#N)c(=O)c21 [2(1), 2-[N-(2-amino-2-methyl-propyl)-N-methyl-amino]-3-(2-butyn-1-yl)-5-(2-cyanophenyl-methyl)-3,5-dihydro-imidazo[4,5-d]pyridazin-4-one] | 0.336 µM
CC#CCn1c(N(C)CCN)nc2cnn(Cc3nc(C)c4ccccc4n3)c(=O)c21 [Example 1, 2-[N-(2-aminoethyl)-N-methyl-amino]-3-(2-butyn-1-yl)-5-[(4-methyl-quinazolin-2-yl)methyl]-3,5-dihydro-imidazo[4,5-d]pyridazin-4-one] | 0.001 µM
CC#CCn1c(N(C)C[C@H](C)N)nc2cnn(Cc3ccccc3C#N)c(=O)c21 [Example 2, (S)-2-[N-(2-amino-propyl)-N-methyl-amino]-3-(2-butyn-1-yl)-5-(2-cyanophenylmethyl)-3,5-dihydro-imidazo[4,5-d]pyridazin-4-one] | 0.076 µM
CC#CCn1c(N(C)C[C@H](C)N)nc2cnn(Cc3nc(C)c4ccccc4n3)c(=O)c21 [Example 3, (S)-2-[N-(2-aminopropyl)-N-methyl-amino]-3-(2-butyn-1-yl)-5-[(4-methyl-quinazolin-2-yl)methyl]-3,5-dihydro-imidazo[4,5-d]pyridazin-4-one] | 0.002 µM

System: not listed separately
Assay: Tolerability after oral administration
Type: in vivo
Details: oral administration of 10 mg/kg

SMILES | toxic side effects / tolerability
CC#CCn1c(N(C)CCN)nc2cnn(Cc3nc(C)c4ccccc4n3)c(=O)c21 [Example 1, 2-[N-(2-aminoethyl)-N-methyl-amino]-3-(2-butyn-1-yl)-5-[(4-methyl-quinazolin-2-yl)methyl]-3,5-dihydro-imidazo[4,5-d]pyridazin-4-one] | no toxic side effects
